# Data reported in patent US7766979B2, “Phase transformation in molecular solids” (Avantium International B.V., priority 2004, dated 2010).
# Where two headings read alike, the source gives them in different places.
# Experiments:
# [1] = tribochemical treatment (high-energy grinding) with phase detection by X-ray powder diffractometry; assay type: physicochemical; conditions: for phase transformation achieved by the process (summary statement): Fritsch Pulverisette 7, hardened steel, as a solid
# Procedure: The detection of the particular modification/form was conducted with X-ray powder diffractometry: X-ray diffractometer: SToe STADI P transmission diffractometer, CuKα1: 1.54060 Å, linear position-sensitive detector, measurement range 5-40°2Theta, step width 0.01°2Theta, measurement time 960 sec/step.
# High-energy mill: Fritsch Pulverisette 7;
# Grinding cup: hardened steel, volume 10 ml; […]
# Temperature control: no temperature control […]
# Amount of substance: 1.0 g
# [2] = cited from earlier work; for phase transformation under mechanical stress (grinding, pressure): conventional grinding or pressure, literature
# [3] = cited from earlier work; for temperature of conversion to the other polymorph: on heating
# [4] = compared with form 1; cited from earlier work
structure (smiles),measurement,setting,value
"CCCNC(=O)NS(=O)(=O)c1ccc(Cl)cc1 [Chlorpropamide form A, Chlorpropamide]",phase found after tribochemical treatment,"[1]; Experiment 3.1: 1.0 g, 800 rpm, 1 hour",partial transformation to form C
same,phase transformation achieved by the process (summary statement),[1]; listed as form A,partly to form C
same,"phase transformation under mechanical stress (grinding, pressure)",[2]; listed as form A,detectable phase transformations under none of the mechanical stresses listed
"CCCNC(=O)NS(=O)(=O)c1ccc(Cl)cc1 [Chlorpropamide form C, Chlorpropamide]",phase found after tribochemical treatment,"[1]; Experiment 3.2: 1.0 g, 800 rpm, 15 minutes",clearly perceptible incipient transformation to form A
same,phase found after tribochemical treatment,"[1]; Experiment 3.3: 1.0 g, 800 rpm, 60 minutes",transformed fully to form A
same,phase transformation achieved by the process (summary statement),[1]; listed as form C,fully to form A
same,thermodynamic stability of the phase,[3]; at room temperature (acetazolamide),metastable
same,"phase transformation under mechanical stress (grinding, pressure)",[2]; listed as form C,partial phase transformation to form A
"CC(=O)Nc1nnc(S(N)(=O)=O)s1 [polymorph 1 of acetazolamide, 5-Acetamido-1,3,4-thiadiazole-2-sulfonamide]","phase transformation under mechanical stress (grinding, pressure)",[2]; listed as polymorph 1,not converted back to polymorph 2
same,storage period without conversion back to polymorph 2,[2]; storage,over 5 years
"CC(=O)Nc1nnc(S(N)(=O)=O)s1 [polymorph 2 of acetazolamide, 5-Acetamido-1,3,4-thiadiazole-2-sulfonamide]",phase found after tribochemical treatment,"[1]; Experiment 2.1: 1.0 g, 800 rpm, 1 hour",converted virtually fully to polymorph 1
same,phase found after tribochemical treatment,"[1]; Experiment 2.2: 1.0 g, 800 rpm, 5 minutes",attributable to the polymorph 2 used
same,phase found after tribochemical treatment,"[1]; Experiment 2.3: 1.0 g, 800 rpm, 30 minutes",polymorph 1 is isolated
same,phase found after tribochemical treatment,"[1]; Experiment 2.4: 1.0 g, 800 rpm, 45 minutes",polymorph 1 is likewise isolated
same,phase found after tribochemical treatment,"[1]; Experiment 2.5: 1.0 g, 400 rpm, 30 minutes",attributable to the polymorph 2 used
same,phase found after tribochemical treatment,"[1]; Experiment 2.6: 1.0 g, 400 rpm, 60 minutes",no phase transformation is observed
same,phase transformation achieved by the process (summary statement),[1],virtually full transformation of polymorph 2 to polymorph 1
same,temperature of conversion to the other polymorph,[3],120-148 °C
same,"phase transformation under mechanical stress (grinding, pressure)",[2]; listed as polymorph 2,Nor has the transformation of polymorph 2 to polymorph 1 under mechanical stress been observed
"Cc1ccnc(NS(=O)(=O)c2ccc(N)cc2)n1 [sulfamerazine form 1, 2-Sulfanilamido-4-methylpyrimidine]",phase found after tribochemical treatment,"[1]; Example 1.1: 1.0 g, normal atmosphere, 800 rpm, 1 hour, no temperature control",Virtually full conversion of form 1 to the desired form 2
same,phase found after tribochemical treatment,"[1]; Example 1.2: 1.0 g, normal atmosphere, 800 rpm, 5 minutes",still attributable to form 1
same,phase found after tribochemical treatment,"[1]; Example 1.3: 1.0 g, normal atmosphere, 800 rpm, 15 minutes",still attributable to form 1
same,phase found after tribochemical treatment,"[1]; Example 1.4: 1.0 g, normal atmosphere, 800 rpm, 30 min",all of which are attributable to form 2
same,phase found after tribochemical treatment,"[1]; Example 1.5: 10.0 g, 7 balls, 40 ml grinding cup, 800 rpm, 15 minutes",those of form 1
same,phase found after tribochemical treatment,"[1]; Example 1.6: 10.0 g, 7 balls, 40 ml grinding cup, 800 rpm, 30 min",all of which are attributable to form 2
same,phase found after tribochemical treatment,"[1]; Example 1.7: 15.0 g, 2 balls, 40 ml grinding cup, 800 rpm, 120 and 180 min",formation of form 2
same,phase transformation achieved by the process (summary statement),[1],fully to form 2
same,"phase transformation under mechanical stress (grinding, pressure)",[2],neither polymorphic form undergoes a transformation
"Cc1ccnc(NS(=O)(=O)c2ccc(N)cc2)n1 [sulfamerazine form 2, 2-Sulfanilamido-4-methylpyrimidine]",temperature of conversion to the other polymorph,[3],about 170 °C
same,hygroscopicity,[4],less hygroscopic
same,release of the active ingredient,[4],releases the sulfamerazine better
